Experiments:
Format in all cases: biochemical
JAK1 kinase domain = JAK1 kinase domain (Homo sapiens (Human), UniProt P23458); assay: JAK1 inhibition assay (Caliper LabChip, isolated kinase domain); conditions: 25 uM ATP, 1.5 nM JAK1; read-out: JAK1 enzymatic activity (Ki)
From the text: (§1) The catalytically active kinase domain of human JAK1, JAK2, JAK3 or TYK2 was purified from extracts of SF9 insect cells infected with a recombinant baculovirus expression vector encoding the human JAK1, JAK2, JAK3 or TYK2 kinase domains (JAK1 amino acid residues N852-D1154 according to the numbering of GenBank sequence accession number P23458, JAK2 amino acid residues D812-G1132 according to the numbering of GenBank sequence accession number NP_004963.1; JAK3 amino acid residues S783-S1124 according to the numbering of GenBank sequence accession number P52333, and TYK2 amino acid residues N873-C1187 according to the numbering of GenBank sequence accession number P29597). The activity of the JAK1, JAK2, JAK3 or TYK2 kinase domains can be measured by a number of direct and indirect methods, including quantification of phosphorylation of peptide substrates derived from the human JAK3 protein (Saltzman et al., Biochem. Biophys. Res. Commun. 246:627-633 (2004)). The activity of the JAK1, JAK2, JAK3 or TYK2 kinase domains was measured in vitro by monitoring phosphorylation of JAK3 derived peptides using the Caliper LabChip technology (see Examples).
(§2) The activity of the isolated JAK1, JAK2 or TYK2 kinase domain was measured by monitoring phosphorylation of a peptide derived from JAK3 ([…] fluorescently labeled on the N-terminus with 5-carboxyfluorescein using the Caliper LabChip technology (Caliper Life Sciences, Hopkinton, Mass.). […] Reactions were incubated at 22° C. in 384-well polypropylene microtiter plates for 30 minutes and then stopped by addition of 25 uL of an EDTA containing solution (100 mM Hepes pH 7.2, 0.015% Brij-35, 150 mM EDTA), resulting in a final EDTA concentration of 50 mM. After termination of the kinase reaction, the proportion of phosphorylated product was determined as a fraction of total peptide substrate using the Caliper LabChip 3000 according to the manufacturer's specifications. Ki values were then determined using the Morrison tight binding model. Morrison, J. F., Biochim. Biophys. Acta. 185:269-296 (1969); William, J. W. and Morrison, J. F., Meth. Enzymol., 63:437-467 (1979).

JAK3 kinase domain = JAK3 kinase domain (Homo sapiens (Human), UniProt P52333); assay: JAK3 inhibition assay (Caliper LabChip, isolated kinase domain); conditions: 5 uM ATP, 5 nM JAK3; read-out: JAK3 enzymatic activity (Ki)
From the text: as §1, with “Previous studies have shown that the isolated kinase domains of human JAK1, JAK2, JAK3 or TYK2 phosphorylate peptide substrates in in vitro kinase assays (Saltzman et al., Biochem. Biophys. Res. Commun. 246:627-633 (2004)). The catalytically” for “The catalytically”
as §2, with “JAK3” for “JAK1, JAK2 or TYK2”

TYK2 kinase domain = TYK2 kinase domain (Homo sapiens (Human), UniProt P29597); assay: TYK2 inhibition assay (Caliper LabChip, isolated kinase domain); conditions: 25 uM ATP, 1 nM TYK2; read-out: TYK2 enzymatic activity (Ki)
From the text: as §1, §2

JAK2 kinase domain = JAK2 kinase domain (Homo sapiens (Human), UniProt O60674); assay: JAK2 inhibition assay (Caliper LabChip, isolated kinase domain); conditions: 25 uM ATP, 0.2 nM JAK2; read-out: JAK2 enzymatic activity (Ki)
From the text: as §1, §2

Chain of TYK2 kinase domain (P29597 873-1187): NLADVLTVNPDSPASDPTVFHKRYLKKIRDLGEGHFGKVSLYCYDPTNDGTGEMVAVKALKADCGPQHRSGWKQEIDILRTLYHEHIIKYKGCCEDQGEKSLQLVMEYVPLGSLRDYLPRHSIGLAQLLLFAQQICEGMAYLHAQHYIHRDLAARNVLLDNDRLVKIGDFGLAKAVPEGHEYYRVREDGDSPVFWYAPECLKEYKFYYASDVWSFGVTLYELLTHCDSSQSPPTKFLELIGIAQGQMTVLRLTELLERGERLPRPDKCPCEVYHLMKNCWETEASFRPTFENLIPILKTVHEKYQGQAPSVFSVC
Chain of JAK3 kinase domain (P52333 783-1124): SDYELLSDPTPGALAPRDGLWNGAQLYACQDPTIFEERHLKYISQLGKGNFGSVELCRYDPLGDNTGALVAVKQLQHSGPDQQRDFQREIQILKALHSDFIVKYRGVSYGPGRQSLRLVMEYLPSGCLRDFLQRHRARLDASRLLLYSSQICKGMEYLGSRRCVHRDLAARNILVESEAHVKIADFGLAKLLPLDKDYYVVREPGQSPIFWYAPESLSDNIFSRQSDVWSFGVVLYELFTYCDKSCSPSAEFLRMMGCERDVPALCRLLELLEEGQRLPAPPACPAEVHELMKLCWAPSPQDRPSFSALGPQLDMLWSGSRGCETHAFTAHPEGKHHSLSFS
Chain of JAK1 kinase domain (P23458 852-1154): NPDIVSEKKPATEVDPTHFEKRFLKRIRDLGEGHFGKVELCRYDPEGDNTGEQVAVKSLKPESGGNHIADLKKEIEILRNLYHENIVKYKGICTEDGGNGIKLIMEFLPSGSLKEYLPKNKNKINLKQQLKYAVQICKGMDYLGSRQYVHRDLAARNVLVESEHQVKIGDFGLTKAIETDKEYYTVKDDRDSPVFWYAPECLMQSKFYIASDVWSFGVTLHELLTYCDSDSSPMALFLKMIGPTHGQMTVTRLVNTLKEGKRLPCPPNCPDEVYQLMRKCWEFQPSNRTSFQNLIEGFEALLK
Chain of JAK2 kinase domain (O60674 812-1132): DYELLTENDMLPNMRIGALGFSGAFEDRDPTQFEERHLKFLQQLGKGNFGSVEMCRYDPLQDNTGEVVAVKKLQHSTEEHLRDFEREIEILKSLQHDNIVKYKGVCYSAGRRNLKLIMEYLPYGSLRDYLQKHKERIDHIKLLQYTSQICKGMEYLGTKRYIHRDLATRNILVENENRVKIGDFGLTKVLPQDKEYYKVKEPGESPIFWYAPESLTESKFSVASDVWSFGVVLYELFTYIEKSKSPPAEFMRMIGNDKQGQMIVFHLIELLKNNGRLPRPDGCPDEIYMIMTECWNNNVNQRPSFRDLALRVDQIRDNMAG

Row | SMILES | Ki (JAK1 kinase domain) [nM] | Ki (JAK3 kinase domain) [nM] | Ki (TYK2 kinase domain) [nM] | Ki (JAK2 kinase domain) [nM]
1 | CCOc1ccc(Cl)cc1-c1nn([C@H]2CCCC[C@@H]2O)cc1NC(=O)c1cnn2cccnc12 (stereo in doubt) [Example 414, N-(3-(5-chloro-2-ethoxyphenyl)-1-((1S,2S)-2-hydroxycyclohexyl)-1H-pyrazol-4-yl)pyrazolo[1,5-a]pyrimidine-3-carboxamide And N-(3-(5-chloro-2-ethoxyphenyl)-1-((1R,2R)-2-hydroxycyclohexyl)-1H-pyrazol-4-yl)pyrazolo[1,5-a]pyrimidine-3-carboxamide] | 3.8 | 210 | 76 | 12.5
2 | Cc1cc(NC(=O)c2cnn3cccnc23)n(-c2cc(Cl)ccc2C)n1 [Example 6, N-(1-(5-chloro-2-methylphenyl)-3-methyl-1H-pyrazol-5-yl)pyrazolo[1,5-a]pyrimidine-3-carboxamide] | 46.2 | 152 | 99.6 | 4.9
3 | Cc1cc(NC(=O)c2cnn3cccnc23)n(-c2cc(C#N)ccc2Cl)n1 [Example 38, N-(1-(2-chloro-5-cyanophenyl)-3-methyl-1H-pyrazol-5-yl)pyrazolo[1,5-a]pyrimidine-3-carboxamide] | 40.3 | 102 | 131 | 5.7
4 | Cc1cc(NC(=O)c2cnn3cccnc23)n(-c2cc(Cl)ccc2Cl)n1 [Example 41, N-(1-(2,5-dichlorophenyl)-3-methyl-1H-pyrazol-5-yl)pyrazolo[1,5-a]pyrimidine-3-carboxamide] | 35.1 | 73.9 | 104 | 3.3
5 | Cc1cc(NC(=O)c2cnn3cccnc23)n(-c2ccccc2Br)n1 [Example 44, N-(1-(2-bromophenyl)-3-methyl-1H-pyrazol-5-yl)pyrazolo[1,5-a]pyrimidine-3-carboxamide] | 131 | 140 | 480 | 18
6 | O=C(Nc1ccnn1-c1ccccc1Cl)c1cnn2cccnc12 [Example 51, N-(1-(2-chlorophenyl)-1H-pyrazol-5-yl)pyrazolo[1,5-a]pyrimidine-3-carboxamide] | 83.7 | 150 | 98 | 15.2
7 | O=C(Nc1ccnn1-c1ccc(Cl)cc1)c1cnn2cccnc12 [Example 54, N-(1-(4-chlorophenyl)-1H-pyrazol-5-yl)pyrazolo[1,5-a]pyrimidine-3-carboxamide] | 1200 | – | 850 | 159
8 | O=C(Nc1ccncc1-c1cccc(F)c1)c1cnn2cccnc12 [Example 63, N-(3-(3-fluorophenyl)pyridin-4-yl)pyrazolo[1,5-a]pyrimidine-3-carboxamide] | 153 | 200 | 140 | 23
9 | COc1ccc(Cl)cc1-c1c(NC(=O)c2cnn3cccnc23)cnn1CCO [Example 109, N-(5-(5-chloro-2-methoxyphenyl)-1-(2-hydroxyethyl)-1H-pyrazol-4-yl)pyrazolo[1,5-a]pyrimidine-3-carboxamide] | 4.4 | 18 | 5.6 | 1
10 | COc1cnc(C(F)(F)F)cc1-c1nn(CC(C)(C)O)cc1NC(=O)c1cnn2cccnc12 [Example 143, N-(1-(2-hydroxy-2-methylpropyl)-3-(5-methoxy-2-(trifluoromethyl)pyridin-4-yl)-1H-pyrazol-4-yl)pyrazolo[1,5-a]pyrimidine-3-carboxamide] | 12 | 1500 | 350 | 38.5
11 | COc1ccc(C#N)cc1-c1nn(Cc2ncnn2C)cc1NC(=O)c1cnn2cccnc12 [Example 155] | 4.2 | 210 | 65 | 2.6
12 | COc1ncc(C#N)cc1-c1n[nH]cc1NC(=O)c1cnn2cccnc12 [Example 158, N-(3-(5-Cyano-2-methoxypyridin-3-yl)-1H-pyrazol-4-yl)pyrazolo[1,5-a]pyrimidine-3-carboxamide] | 4.8 | 53 | 6.6 | 1.5
